{"source": "paper PMC10331583", "about": "“Control of fibrosis with enhanced safety via asymmetric inhibition of prolyl‐tRNA synthetase 1” (EMBO Molecular Medicine, 2023)", "key": {"[1]": {"assay": "Two‐week repeated‐dose toxicity study, HF versus DWN12088", "type": "in vivo, mice", "conditions": "male, ICR (CrljOri: CD1), mouse, in vivo; oral once daily for 2 weeks, ICR mice", "description": "(§1) To compare the in vivo toxicity of HF and DWN12088, all experiments were conducted following the international guidelines on the ethical use of experimental animals and approved by the Institutional Animal Care and Use Committee of KNOTUS (KNOTUS IACUC 21‐KE‐250 and KNOTUS IACUC 21‐KE‐359). ICR (CrljOri: CD1) mice (7‐week‐old, male, obtained from Koatech) were randomized (n = 6 for each group) and then orally administered with the indicated amounts of HF or DWN12088 once daily for 2 weeks. In the high‐dose group, the dose of DWN12088 was reduced from 120 mg/kg to 90 mg/kg from day 6. […] Body weight was measured at day 1, 2, 3, 4, 5, 8, 14, and 15.\n(§2) After administering the drugs for 2 weeks, mice were fasted overnight and anesthetized with isoflurane. Blood samples were collected in EDTA‐coated tubes, and the following parameters were determined using a hematology analyzer (ADVIA 2120, SIEMENS, USA); red blood cell, platelet count, hematocrit, white blood cell, red cell distribution width, hemoglobin concentration distribution width, hemoglobin concentration, neutrophil, mean corpuscular volume, lymphocyte, mean cell hemoglobin, monocyte, mean cell hemoglobin concentration, eosinophil, mean platelet volume, basophil, reticulocytes, and large unstained cells.\n(§3) For clinical chemistry, the remaining blood samples were incubated in a vacutainer tube with clot activator and then centrifuged to prepare serum. The following parameters were measured in the serum using a chemistry analyzer (7180, Hitachi, Japan) and electrolyte analyzer (AVL 9180, Roche, Switzerland); aspartate aminotransferase, albumin, alanine aminotransferase, albumin/globulin ratio, alkaline phosphatase, blood urea nitrogen, creatine phosphokinase, creatinine, total bilirubin, inorganic phosphorus, glucose, calcium, total cholesterol, sodium, triglyceride, potassium, total protein, and chloride.\n(§4) After blood collection, blood was drained by incising the abdominal aorta and posterior vena cava, and all organs of the skin, brain, thoracic cavity, and abdominal cavity were observed. The relative weights of the lung, spleen, liver, heart, kidney, thymus, and testes were calculated by dividing the weight of each organ by the body weight. The experiments were conducted as non‐blind test."}, "ICR (CrljOri: CD1) mice": {"tested_on": "ICR (CrljOri: CD1) mice", "assay": "Two‐week repeated‐dose toxicity study, HF versus DWN12088", "type": "in vivo", "description": "as §1, §2, §3, §4"}, "His‐PARS1": {"molecular_target": "T1, His‐PARS1 (Homo sapiens, UniProt P07814)", "T1 construct": "His‐PARS1 (1001–1,512 aa); made in house; host or cells: Escherichia coli", "T1 sequence (P07814 1001-1512 limits assumed)": "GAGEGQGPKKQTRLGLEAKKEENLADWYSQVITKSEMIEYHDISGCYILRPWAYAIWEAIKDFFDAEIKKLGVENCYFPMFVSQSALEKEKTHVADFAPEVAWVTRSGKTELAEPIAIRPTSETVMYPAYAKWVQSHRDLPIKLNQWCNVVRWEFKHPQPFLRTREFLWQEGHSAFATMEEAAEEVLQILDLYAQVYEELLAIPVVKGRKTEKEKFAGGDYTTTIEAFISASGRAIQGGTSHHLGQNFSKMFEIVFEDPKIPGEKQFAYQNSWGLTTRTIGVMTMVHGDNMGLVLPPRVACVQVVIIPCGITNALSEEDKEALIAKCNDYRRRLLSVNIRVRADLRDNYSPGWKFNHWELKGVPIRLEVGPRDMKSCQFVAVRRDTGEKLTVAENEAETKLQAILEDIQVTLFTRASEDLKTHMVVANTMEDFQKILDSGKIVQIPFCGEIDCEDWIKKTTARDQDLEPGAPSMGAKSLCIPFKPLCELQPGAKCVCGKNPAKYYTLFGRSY", "assay": "Surface plasmon resonance (SPR)", "type": "binding", "conditions": "read-out: KD"}, "phosphorylation of SMAD2": {"tested_on": "phosphorylation of SMAD2", "assay": "Phosphorylation of SMAD2 (TGF‐β pathway), immunoblot", "type": "cell-based, human", "conditions": "TGF‐β 2 ng/ml, 15 h", "description": "The levels of proteins were determined by immunoblot assay. […] The lowest concentration at which protein levels started to decrease was normalized by IC50 values for collagen level and used as the y‐axis value. […] The slope and R^2 value were calculated using GraphPad Prism 7.0. […] The activation of the TGF‐β pathway was determined by monitoring the phosphorylation of SMAD2. Immunoblot images are representative of three biologically independent experiments. • The band intensities of the immunoblot images in (C) were quantified using ImageJ (n = 3; One‐way ANOVA; *P < 0.05, **P < 0.01, ***P < 0.001; mean ± SEM). Source data are available online for this figure."}, "[2]": {"tested_on": "WI‐26 VA4 cells stably expressing PARS1 FA/EA/RL mutant", "assay": "Collagen ELISA in cells stably expressing PARS1 mutant", "conditions": "for Collagen level, average: average of 4 experiments; for Collagen level, single replicates: replicates of Experiments #1-#4"}, "[3]": {"conditions": "WI-26 VA4 Flag-PARS1 FA/EA/RL, 0.3 nM"}, "[4]": {"conditions": "WI-26 VA4 Flag-PARS1 FA/EA/RL, 1 nM"}, "[5]": {"conditions": "WI-26 VA4 Flag-PARS1 FA/EA/RL, 3 nM"}, "[6]": {"conditions": "WI-26 VA4 Flag-PARS1 FA/EA/RL, 10 nM"}, "[7]": {"conditions": "WI-26 VA4 Flag-PARS1 FA/EA/RL, 30 nM"}, "[8]": {"conditions": "WI-26 VA4 Flag-PARS1 FA/EA/RL, 100 nM"}, "[9]": {"conditions": "WI-26 VA4 Flag-PARS1 FA/EA/RL, 300 nM"}, "[10]": {"conditions": "WI-26 VA4 Flag-PARS1 FA/EA/RL, 1000 nM"}}, "note": "Where “and” joins values, the source holds several entries; their conditions need not be identical. Equal entries are not always repeated. Where two headings read alike, the source gives them in different places."}
{"molecule": "O=C(CC1NCCCC1O)Cn1cnc2cc(Br)c(Cl)cc2c1=O", "note": "(centres unmarked) [HF, Halofuginone, reference compound]", "values": [{"measurement": "NOAEL at 2 weeks", "setting": "[1]", "value": "< 0.375", "unit": "mg/kg"}, {"measurement": "Mortality: Found dead", "setting": "ICR (CrljOri: CD1) mice; 1.5 mg/kg oral once daily, 1 animal on day 5, 2 on day 6", "value": "Found dead: 3/6 (1 animal on day 5, 2 animals on day 6) Terminal sacrifice: 3/6 (on day 6)"}, {"measurement": "Mortality: Terminal sacrifice", "setting": "ICR (CrljOri: CD1) mice; 1.5 mg/kg oral once daily, on day 6", "value": "Found dead: 3/6 (1 animal on day 5, 2 animals on day 6) Terminal sacrifice: 3/6 (on day 6)"}, {"measurement": "reduction in body weight", "setting": "ICR (CrljOri: CD1) mice; mouse, in vivo", "value": "> 10", "unit": "%"}, {"measurement": "Kd", "setting": "His‐PARS1; + ATP (1 mM)", "value": 178, "unit": "nM"}, {"measurement": "Kd", "setting": "His‐PARS1; - ATP", "value": 47900, "unit": "nM"}, {"measurement": "SMAD2 phosphorylation", "setting": "phosphorylation of SMAD2", "value": "reduced SMAD2 phosphorylation"}, {"measurement": "IC50", "setting": "[2]; Homo sapiens, WI26VA4, read-out: IC50, collagen level", "value": 15.4, "unit": "nM"}, {"measurement": "Collagen level, average", "setting": "[2]; [3]", "value": "101.54 % of control"}, {"measurement": "Collagen level, single replicates", "setting": "[2]; [3]", "value": "102.13 % of control and 120.79 % of control and 96.95 % of control and 94.78 % of control and 97.01 % of control and 91.61 % of control and 85.22 % of control and 99.08 % of control and 88.51 % of control and 103.40 % of control and 115.28 % of control and 123.69 % of control"}, {"measurement": "Collagen level, average", "setting": "[2]; [4]", "value": "101.93 % of control"}, {"measurement": "Collagen level, single replicates", "setting": "[2]; [4]", "value": "100.26 % of control and 124.52 % of control and 104.32 % of control and 114.35 % of control and 95.53 % of control and 102.09 % of control and 95.23 % of control and 96.53 % of control and 98.60 % of control and 104.60 % of control and 92.58 % of control and 94.60 % of control"}, {"measurement": "Collagen level, average", "setting": "[2]; [5]", "value": "97.24 % of control"}, {"measurement": "Collagen level, single replicates", "setting": "[2]; [5]", "value": "74.39 % of control and 119.08 % of control and 111.81 % of control and 77.98 % of control and 96.46 % of control and 94.83 % of control and 78.75 % of control and 99.39 % of control and 89.90 % of control and 103.30 % of control and 102.16 % of control and 118.87 % of control"}, {"measurement": "Collagen level, average", "setting": "[2]; [6]", "value": "70.83 % of control"}, {"measurement": "Collagen level, single replicates", "setting": "[2]; [6]", "value": "64.31 % of control and 91.60 % of control and 60.26 % of control and 74.23 % of control and 77.87 % of control and 69.39 % of control and 82.84 % of control and 75.26 % of control and 63.48 % of control and 78.01 % of control and 54.94 % of control and 57.79 % of control"}, {"measurement": "Collagen level, average", "setting": "[2]; [7]", "value": "26.11 % of control"}, {"measurement": "Collagen level, single replicates", "setting": "[2]; [7]", "value": "25.57 % of control and 24.68 % of control and 22.36 % of control and 32.03 % of control and 25.38 % of control and 25.85 % of control and 26.88 % of control and 24.32 % of control and 26.43 % of control and 20.94 % of control and 29.04 % of control and 29.85 % of control"}, {"measurement": "Collagen level, average", "setting": "[2]; [8]", "value": "4.47 % of control"}, {"measurement": "Collagen level, single replicates", "setting": "[2]; [8]", "value": "4.44 % of control and 3.82 % of control and 4.24 % of control and 4.79 % of control and 5.13 % of control and 4.94 % of control and 4.02 % of control and 4.80 % of control and 4.41 % of control and 3.44 % of control and 4.93 % of control and 4.63 % of control"}, {"measurement": "Collagen level, average", "setting": "[2]; [9]", "value": "3.35 % of control"}, {"measurement": "Collagen level, single replicates", "setting": "[2]; [9]", "value": "2.94 % of control and 2.13 % of control and 2.73 % of control and 2.78 % of control and 5.38 % of control and 5.19 % of control and 3.51 % of control and 3.53 % of control and 4.16 % of control and 2.06 % of control and 3.52 % of control and 2.22 % of control"}, {"measurement": "Collagen level, average", "setting": "[2]; [10]", "value": "4.10 % of control"}, {"measurement": "Collagen level, single replicates", "setting": "[2]; [10]", "value": "4.74 % of control and 3.22 % of control and 4.71 % of control and 3.16 % of control and 4.63 % of control and 4.53 % of control (2×) and 4.37 % of control and 4.67 % of control and 2.44 % of control and 4.55 % of control and 3.67 % of control"}, {"measurement": "HillSlope, collagen level", "setting": "[2]; WI-26 VA4 Flag-PARS1 FA/EA/RL, four-parameter fit", "value": -1.829}, {"measurement": "LogIC50, collagen level", "setting": "[2]; WI-26 VA4 Flag-PARS1 FA/EA/RL, log of concentration in nM, four-parameter fit", "value": 1.188}]}
